The target of the experiment is hKCNQ2/3 (Homo sapiens, UniProt O43525+O43526). Put plainly: Fluorescence assay using a voltage-sensitive dye (fluorimetry). It is filed as cell-based. Set-up: expressed in transfected cells; host or cells: CHO-K1. The settings on record: CHO-K1 cells expressing KCNQ2/3; for Emax at 1 µM / Emax at 10 µM: relative to retigabine = 100%; for Emax at 1 µM: read-out: Fluorimetry % Efficacy @ 1 μM (Retigabine = 100%); for Emax at 10 µM: read-out: Fluorimetry % Efficacy @ 10 μM (Retigabine = 100%). The method, then:
Pharmacological Experiments Fluorescence Assay Using a Voltage-Sensitive Dye
Human CHO-K1 cells expressing KCNQ2/3 channels are cultivated adherently at 37° C., 5% CO2 and 95% humidity in cell culture bottles (e.g. 80 cm^2 TC flasks, Nunc) with DMEM-high glucose (Sigma Aldrich, D7777) including 10% FCS (PAN Biotech, e.g. 3302-P270521) or alternatively MEM Alpha Medium (1×, liquid, Invitrogen, #22571), 10% foetal calf serum (FCS) (Invitrogen, #10270-106, heat-inactivated) and the necessary selection antibiotics.
Before being sown out for the measurements, the cells are washed with a 1×DPBS buffer without Ca^2+/Mg^2+ (e.g. Invitrogen, #14190-094) and detached from the bottom of the culture vessel by means of Accutase (PAA Laboratories, #L11-007) (incubation with Accutase for 15 min at 37° C.). The cell count then present is determined using a CASY™ cell counter (TCC model, Scharfe System) in order subsequently to apply 20,000 to 30,000 cells/well/100 μl of the described nutrient medium, depending on density optimisation for the individual cell line, to 96-well measuring plates of the Corning™ CeIIBIND™ type (flat clear-bottom black polystyrene microplates, #3340).
Incubation is then carried out for one hour at room temperature, without gassing or adjusting the humidity, followed by incubation for 24 hours at 37° C., 5% CO2 and 95% humidity.
The voltage-sensitive fluorescent dye from the Membrane Potential Assay Kit (Red™ bulk format part R8123 for FLIPR, MDS Analytical Technologies™) is prepared by dissolving the contents of a vessel of Membrane Potential Assay Kit Red Component A in 200 ml of extracellular buffer (ES buffer, 120 mM NaCl, 1 mM KCl, 10 mM HEPES, 2 mM CaCl2, 2 mM MgCl2, 10 mM glucose; pH 7.4). After removal of the nutrient medium, the cells are washed with 200 μl of ES buffer, then covered with a layer of 100 μl of the dye solution prepared above and incubated for 45 min at room temperature with exclusion of light.
The fluorescence measurements are carried out with a BMG Labtech FLUOstar™ BMG Labtech NOVOstar™ or BMG Labtech POLARstar™ instrument (525 nm excitation, 560 nm emission, bottom-read mode). After incubation of the dye, 50 μl of the substances to be tested in the desired concentrations, or 50 μl of ES buffer for control purposes, are introduced into separate cavities of the measuring plate and incubated for 30 min at room temperature whilst being shielded from light. The fluorescence intensity of the dye is then measured for 5 min and the fluorescence value F1 of each well is thus determined at a given, constant time. 15 μl of a […] KCl solution ([…]) are then added to each well. The change in fluorescence is subsequently measured until all relevant measured values have been obtained (mainly 5-30 min). At a given time after KCl application, a fluorescence value F2 is determined, in this case at the time of the fluorescence peak.
For calculation, the fluorescence intensity F2 is compared with the fluorescence intensity F1, and the agonistic activity of the target compound on the potassium channel is determined therefrom. F2 and F1 are calculated as follows: […]
In order to determine whether a substance has an agonistic activity,
[formula] for example, can be compared with
[formula] of control cells.
[formula] is determined by adding to the reaction batch only the buffer solution instead of the substance to be tested, determining the value F1K of the fluorescence intensity, adding the potassium ions as described above and measuring a value F2K of the fluorescence intensity. Then F2K and F1K are calculated as follows: […]
A substance has an agonistic activity on the potassium channel if
[formula] is greater than
Independently of the comparison of
[formula] it is also possible to conclude that a target compound has an agonistic activity if an increase in
[formula] is to be observed as the dosage of the target compound increases. […]

Our source for the Emax and EC50 values is patent US8367700B2, “Substituted 4-(1.2,3,4-tetrahydroisoquinolin-2-yl)-4-oxobutyric acid amide as KCNQ2/3 modulators” (Gruenenthal GmbH, priority 2008, dated 2013).

A word on the EC50: it is the midpoint of the concentration-response curve. A high value points to a need for much substance.

Chain of hKCNQ2/3 (O43526 whole entry): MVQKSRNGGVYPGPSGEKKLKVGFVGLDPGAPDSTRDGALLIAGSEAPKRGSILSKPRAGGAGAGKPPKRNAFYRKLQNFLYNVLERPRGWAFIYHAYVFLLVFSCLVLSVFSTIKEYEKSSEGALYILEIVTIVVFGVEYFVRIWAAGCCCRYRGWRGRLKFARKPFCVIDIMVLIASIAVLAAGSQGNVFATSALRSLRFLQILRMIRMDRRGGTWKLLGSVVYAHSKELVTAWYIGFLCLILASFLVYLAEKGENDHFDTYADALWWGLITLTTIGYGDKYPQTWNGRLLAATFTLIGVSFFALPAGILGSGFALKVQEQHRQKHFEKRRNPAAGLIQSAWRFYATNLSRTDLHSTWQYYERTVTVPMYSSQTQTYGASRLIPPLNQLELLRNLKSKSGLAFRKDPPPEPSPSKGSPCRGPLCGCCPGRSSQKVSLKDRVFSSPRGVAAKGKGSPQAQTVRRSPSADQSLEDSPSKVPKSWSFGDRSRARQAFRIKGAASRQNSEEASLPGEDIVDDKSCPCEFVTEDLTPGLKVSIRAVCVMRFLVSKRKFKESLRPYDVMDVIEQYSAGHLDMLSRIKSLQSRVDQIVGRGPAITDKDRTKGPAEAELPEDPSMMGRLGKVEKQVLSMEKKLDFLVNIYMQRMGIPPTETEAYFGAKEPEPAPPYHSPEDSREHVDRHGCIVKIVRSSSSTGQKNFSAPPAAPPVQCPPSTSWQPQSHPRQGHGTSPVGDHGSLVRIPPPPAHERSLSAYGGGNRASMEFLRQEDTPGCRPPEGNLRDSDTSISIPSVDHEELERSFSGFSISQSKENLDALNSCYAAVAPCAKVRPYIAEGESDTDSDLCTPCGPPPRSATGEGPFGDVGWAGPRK
Chain of hKCNQ2/3 (O43525 whole entry): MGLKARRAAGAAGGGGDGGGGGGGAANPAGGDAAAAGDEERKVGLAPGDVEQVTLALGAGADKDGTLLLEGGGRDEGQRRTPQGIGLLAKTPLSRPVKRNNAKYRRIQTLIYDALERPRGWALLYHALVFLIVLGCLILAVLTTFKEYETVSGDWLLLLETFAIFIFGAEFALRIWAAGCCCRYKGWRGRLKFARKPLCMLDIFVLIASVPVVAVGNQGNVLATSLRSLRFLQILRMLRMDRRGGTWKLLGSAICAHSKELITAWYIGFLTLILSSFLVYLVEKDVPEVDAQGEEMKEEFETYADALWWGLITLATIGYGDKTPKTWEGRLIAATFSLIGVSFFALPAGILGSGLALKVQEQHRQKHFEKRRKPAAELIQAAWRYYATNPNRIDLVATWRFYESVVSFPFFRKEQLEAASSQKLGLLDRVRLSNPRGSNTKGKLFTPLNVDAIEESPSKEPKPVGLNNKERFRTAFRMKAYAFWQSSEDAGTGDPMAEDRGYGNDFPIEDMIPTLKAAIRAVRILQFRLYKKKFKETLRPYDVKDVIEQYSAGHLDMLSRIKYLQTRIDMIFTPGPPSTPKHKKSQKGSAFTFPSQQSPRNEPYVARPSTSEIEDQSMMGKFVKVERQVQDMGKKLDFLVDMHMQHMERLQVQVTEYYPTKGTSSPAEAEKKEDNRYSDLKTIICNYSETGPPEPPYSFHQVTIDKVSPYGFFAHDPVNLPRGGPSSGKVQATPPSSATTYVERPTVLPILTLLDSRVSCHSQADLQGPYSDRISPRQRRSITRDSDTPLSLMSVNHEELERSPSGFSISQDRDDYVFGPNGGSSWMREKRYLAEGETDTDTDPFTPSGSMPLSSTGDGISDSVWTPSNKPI

On to `O=C(CCC(=O)N1CCc2ccccc2C1c1ccccc1)NCc1ccc(C(F)(F)F)cc1` (stereo not shown) [Example compound 8, 4-Oxo-4-(1-phenyl-3,4-dihydro-1H-isoquinolin-2-yl)-N-[[4-(trifluoromethyl)phenyl]methyl]butyric acid amide], for which the Emax at 1 µM stood at 63%.

For the compound `O=C(CCC(=O)N1CCc2ccccc2C1c1cccs1)NCc1cccc(C(F)(F)F)c1` (stereo not shown) [Example compound 3, 4-Oxo-4-(1-thien-2-yl-3,4-dihydroisoquinolin-2(1H)-yl)-N-(3-(trifluoromethyl)benzyl)butyric acid amide], the Emax at 1 µM was found to be 76%, the Emax at 10 µM worked out at 134% and the response was half-maximal at 1050 nM (EC50). In the case of `CC1(C)CN(C(=O)CCC(=O)NCc2cccc(C(F)(F)F)c2)C(c2ccccc2)c2ccccc21` (stereo not shown) [Example compound 10, 4-(4,4-Dimethyl-1-phenyl-1,3-dihydroisoquinolin-2-yl)-4-oxo-N-[[3-(trifluoromethyl)phenyl]methyl]butyric acid amide], the Emax at 1 µM was 45% and the EC50 amounted to 135 nM.

Consider `O=C(CCC(=O)N1CCc2ccccc2C1c1ccccc1)NCc1ccccc1C(F)(F)F` (stereo not shown) [Example compound 7, 4-Oxo-4-(1-phenyl-3,4-dihydro-1H-isoquinolin-2-yl)-N-[[2-(trifluoromethyl)phenyl]methyl]butyric acid amide], for which the Emax at 1 µM stood at 12%. Take `CC1Cc2ccccc2C(c2ccccc2)N1C(=O)CCC(=O)NCc1cccc(C(F)(F)F)c1` (stereo not shown) [Example compound 13, 4-(3-Methyl-1-phenyl-3,4-dihydro-1H-isoquinolin-2-yl)-4-oxo-N-[[3-(trifluoromethyl)phenyl]methyl]butyric acid amide]: the Emax at 1 µM was 29%. Take `Cc1ccccc1C1c2ccccc2CCN1C(=O)CCC(=O)NCc1ccccc1C(F)(F)F` (stereo not shown) [Example compound 69, 4-Oxo-4-(1-(2-tolyl)-3,4-dihydro-1H-isoquinolin-2-yl)-N-[[2-(trifluoromethyl)-phenyl]methyl]butyric acid amide]: the Emax at 1 µM turned out to be 67% and the EC50 is 158 nM. On to `COc1cccc2c1CCN(C(=O)CCC(=O)NCc1cccc(C(F)(F)F)c1)C2c1ccccc1` (stereo not shown) [Example compound 12, 4-(5-Methoxy-1-phenyl-3,4-dihydro-1H-isoquinolin-2-yl)-4-oxo-N-[[3-(trifluoromethyl)phenyl]methyl]butyric acid amide], for which the Emax at 1 µM was -7%. Regarding `CC1CN(C(=O)CCC(=O)NCc2cccc(C(F)(F)F)c2)C(c2ccccc2)c2ccccc21` (stereo not shown) [Example compound 9, 4-(4-Methyl-1-phenyl-3,4-dihydro-1H-isoquinolin-2-yl)-4-oxo-N-[[3-(trifluoromethyl)phenyl]methyl]butyric acid amide], the Emax at 1 µM is 51% and the midpoint of the response, the EC50, lay at 116 nM. Take `O=C(CCC(=O)N1CCc2ccccc2C1c1ccncc1)NCc1cccc(C(F)(F)F)c1` (stereo not shown) [Example compound 4, 4-Oxo-4-[1-(4-pyridyl)-3,4-dihydro-1H-isoquinolin-2-yl]-N-[[3-(trifluoromethyl)phenyl]methyl]butyric acid amide]: the Emax at 1 µM amounted to 11% and the Emax at 10 µM came to 35%.

Take `Cc1ccccc1C1c2ccccc2CCN1C(=O)CCC(=O)NCc1cccc(C(F)(F)F)c1` (stereo not shown) [Example compound 67, 4-Oxo-4-(1-(2-tolyl)-3,4-dihydro-1H-isoquinolin-2-yl)-N-[[3-(trifluoromethyl)-phenyl]methyl]butyric acid amide]: the Emax at 1 µM turned out to be 112% and the EC50 was determined as 215 nM. For the compound `O=C(CCC(=O)N1CCc2c(F)cccc2C1c1ccccc1)NCc1cccc(C(F)(F)F)c1` (stereo not shown) [Example compound 6, 4-(5-Fluoro-1-phenyl-3,4-dihydro-1H-isoquinolin-2-yl)-4-oxo-N-[[3-(trifluoromethyl)phenyl]methyl]butyric acid amide], the Emax at 1 µM was 73% and the EC50 was determined as 75 nM.
